Molecules are shown by their SMILES.

One may read the IC50 as the concentration needed to halve the response being measured. Read a low IC50 as greater potency. What is called inhibition is the relative decrease from the control value, in per cent. Low readings indicate a response near the control, high ones a response far below the control.

Assay [1] concerns the target CDK12/Cyclin K (Homo sapiens, UniProt Q9NYV4). The assay can be described thus: Inhibition of CDK12/Cyclin K (unknown origin) preincubated for 10 mins followed by substrate and ATP addition measured after 200 mins by ADP-Glo luminescence assay. Type of assay: protein-complex assay.
Assay [2] deals with Cyclin-dependent kinase 13/Cyclin-K (Homo sapiens, UniProt Q14004). The assay can be described thus: Inhibition of CDK13/Cyclin K (unknown origin) preincubated for 10 mins followed by substrate and ATP addition measured after 200 mins by ADP-Glo luminescence assay. Type of assay: protein-complex assay. (In general: ADP-Glo turns the ADP formed in a reaction into a luminescent signal.)
Chain of Cyclin-dependent kinase 13/Cyclin-K (Q14004 whole entry): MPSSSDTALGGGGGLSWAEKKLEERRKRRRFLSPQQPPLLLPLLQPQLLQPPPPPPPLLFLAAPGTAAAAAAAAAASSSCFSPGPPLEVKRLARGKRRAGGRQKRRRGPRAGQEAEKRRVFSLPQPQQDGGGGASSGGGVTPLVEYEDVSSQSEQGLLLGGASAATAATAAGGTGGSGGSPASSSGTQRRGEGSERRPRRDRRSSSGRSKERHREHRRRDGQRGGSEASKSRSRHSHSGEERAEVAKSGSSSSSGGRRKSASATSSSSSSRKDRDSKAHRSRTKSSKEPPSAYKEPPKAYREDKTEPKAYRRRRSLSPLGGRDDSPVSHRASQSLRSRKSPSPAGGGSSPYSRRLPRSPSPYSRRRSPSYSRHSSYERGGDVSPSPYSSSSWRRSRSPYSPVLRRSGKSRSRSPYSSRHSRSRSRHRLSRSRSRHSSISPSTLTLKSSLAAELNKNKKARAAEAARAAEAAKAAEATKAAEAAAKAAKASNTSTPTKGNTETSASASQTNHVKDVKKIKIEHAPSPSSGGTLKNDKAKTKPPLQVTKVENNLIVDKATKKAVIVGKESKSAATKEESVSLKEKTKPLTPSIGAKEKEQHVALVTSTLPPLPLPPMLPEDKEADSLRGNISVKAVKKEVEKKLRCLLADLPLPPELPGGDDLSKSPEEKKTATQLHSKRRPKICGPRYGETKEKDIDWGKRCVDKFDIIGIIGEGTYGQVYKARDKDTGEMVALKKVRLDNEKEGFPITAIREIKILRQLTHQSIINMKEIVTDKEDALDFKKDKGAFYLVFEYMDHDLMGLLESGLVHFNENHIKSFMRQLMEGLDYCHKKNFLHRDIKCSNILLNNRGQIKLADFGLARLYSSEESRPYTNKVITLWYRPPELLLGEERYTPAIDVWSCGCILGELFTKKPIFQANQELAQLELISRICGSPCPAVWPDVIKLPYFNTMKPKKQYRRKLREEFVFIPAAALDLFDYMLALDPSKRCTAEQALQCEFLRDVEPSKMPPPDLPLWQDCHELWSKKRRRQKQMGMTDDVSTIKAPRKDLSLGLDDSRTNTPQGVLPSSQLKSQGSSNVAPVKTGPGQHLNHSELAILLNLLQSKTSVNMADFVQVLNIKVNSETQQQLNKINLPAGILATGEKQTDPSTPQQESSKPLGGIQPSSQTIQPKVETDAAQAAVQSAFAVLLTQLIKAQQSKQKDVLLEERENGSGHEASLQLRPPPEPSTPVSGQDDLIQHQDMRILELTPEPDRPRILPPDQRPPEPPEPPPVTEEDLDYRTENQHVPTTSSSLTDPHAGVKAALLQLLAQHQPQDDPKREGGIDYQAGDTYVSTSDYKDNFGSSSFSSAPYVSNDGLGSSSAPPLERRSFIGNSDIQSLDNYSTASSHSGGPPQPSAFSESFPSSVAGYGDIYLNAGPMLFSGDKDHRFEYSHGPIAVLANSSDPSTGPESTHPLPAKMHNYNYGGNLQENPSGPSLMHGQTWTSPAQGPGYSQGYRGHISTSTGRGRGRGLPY
Chain of Cyclin-dependent kinase 13/Cyclin-K (O75909 whole entry, further chain): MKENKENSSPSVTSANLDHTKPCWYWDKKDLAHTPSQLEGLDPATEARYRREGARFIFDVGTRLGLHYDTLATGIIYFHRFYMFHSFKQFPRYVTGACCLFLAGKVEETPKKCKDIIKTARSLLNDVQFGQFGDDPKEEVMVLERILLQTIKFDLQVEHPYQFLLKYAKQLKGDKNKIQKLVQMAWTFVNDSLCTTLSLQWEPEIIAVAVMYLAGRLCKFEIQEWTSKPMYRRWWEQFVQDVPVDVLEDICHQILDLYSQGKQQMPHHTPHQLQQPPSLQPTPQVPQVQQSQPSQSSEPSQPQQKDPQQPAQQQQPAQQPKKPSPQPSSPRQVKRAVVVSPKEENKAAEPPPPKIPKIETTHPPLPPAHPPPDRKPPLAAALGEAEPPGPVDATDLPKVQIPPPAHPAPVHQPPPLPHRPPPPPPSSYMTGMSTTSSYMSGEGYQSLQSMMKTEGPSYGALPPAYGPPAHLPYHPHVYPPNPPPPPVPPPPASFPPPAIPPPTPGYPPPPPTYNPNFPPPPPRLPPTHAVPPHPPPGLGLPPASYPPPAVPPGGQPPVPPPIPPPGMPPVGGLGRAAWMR

The subject of assay [3] is BT-474. Nature of the assay: Cytotoxicity against human BT-474 cells incubated for 48 hrs by CCK-8 reagent microplate reader assay. Type of assay: functional, cell-based. The settings on record: BT-474, 48 h. In general terms: Tetrazolium assays rely on reduction of a dye to a coloured formazan, in cell work by metabolically active cells.
Assay [4] concerns the target T1, CDK12/Cyclin K (Homo sapiens) (UniProt O75909+Q9NYV4). The assay can be described thus: Inhibition of CDK12/Cyclin K (unknown origin) at 10 uM preincubated for 10 mins followed by substrate and ATP addition measured after 200 mins by ADP-Glo luminescence assay relative to control. Type of assay: protein-complex assay. As to conditions: time 210.0 min.
The target in assay [5] is T1, CDK12/Cyclin K (Homo sapiens). Nature of the assay: Inhibition of CDK12/Cyclin K (unknown origin) at 1 uM preincubated for 10 mins followed by substrate and ATP addition measured after 200 mins by ADP-Glo luminescence assay relative to control. Type of assay: protein-complex assay. As to conditions: time 210.0 min.
The target is the same in assay [6]. The assay can be described thus: Inhibition of CDK12/Cyclin K (unknown origin) at 0.1 uM preincubated for 10 mins followed by substrate and ATP addition measured after 200 mins by ADP-Glo luminescence assay relative to control. Type of assay: protein-complex assay. As to conditions: time 210.0 min.

T1 sequence (O75909 whole entry, looked up): as the sequence (O75909 whole entry, further chain) above
T1 sequence (Q9NYV4 whole entry, looked up): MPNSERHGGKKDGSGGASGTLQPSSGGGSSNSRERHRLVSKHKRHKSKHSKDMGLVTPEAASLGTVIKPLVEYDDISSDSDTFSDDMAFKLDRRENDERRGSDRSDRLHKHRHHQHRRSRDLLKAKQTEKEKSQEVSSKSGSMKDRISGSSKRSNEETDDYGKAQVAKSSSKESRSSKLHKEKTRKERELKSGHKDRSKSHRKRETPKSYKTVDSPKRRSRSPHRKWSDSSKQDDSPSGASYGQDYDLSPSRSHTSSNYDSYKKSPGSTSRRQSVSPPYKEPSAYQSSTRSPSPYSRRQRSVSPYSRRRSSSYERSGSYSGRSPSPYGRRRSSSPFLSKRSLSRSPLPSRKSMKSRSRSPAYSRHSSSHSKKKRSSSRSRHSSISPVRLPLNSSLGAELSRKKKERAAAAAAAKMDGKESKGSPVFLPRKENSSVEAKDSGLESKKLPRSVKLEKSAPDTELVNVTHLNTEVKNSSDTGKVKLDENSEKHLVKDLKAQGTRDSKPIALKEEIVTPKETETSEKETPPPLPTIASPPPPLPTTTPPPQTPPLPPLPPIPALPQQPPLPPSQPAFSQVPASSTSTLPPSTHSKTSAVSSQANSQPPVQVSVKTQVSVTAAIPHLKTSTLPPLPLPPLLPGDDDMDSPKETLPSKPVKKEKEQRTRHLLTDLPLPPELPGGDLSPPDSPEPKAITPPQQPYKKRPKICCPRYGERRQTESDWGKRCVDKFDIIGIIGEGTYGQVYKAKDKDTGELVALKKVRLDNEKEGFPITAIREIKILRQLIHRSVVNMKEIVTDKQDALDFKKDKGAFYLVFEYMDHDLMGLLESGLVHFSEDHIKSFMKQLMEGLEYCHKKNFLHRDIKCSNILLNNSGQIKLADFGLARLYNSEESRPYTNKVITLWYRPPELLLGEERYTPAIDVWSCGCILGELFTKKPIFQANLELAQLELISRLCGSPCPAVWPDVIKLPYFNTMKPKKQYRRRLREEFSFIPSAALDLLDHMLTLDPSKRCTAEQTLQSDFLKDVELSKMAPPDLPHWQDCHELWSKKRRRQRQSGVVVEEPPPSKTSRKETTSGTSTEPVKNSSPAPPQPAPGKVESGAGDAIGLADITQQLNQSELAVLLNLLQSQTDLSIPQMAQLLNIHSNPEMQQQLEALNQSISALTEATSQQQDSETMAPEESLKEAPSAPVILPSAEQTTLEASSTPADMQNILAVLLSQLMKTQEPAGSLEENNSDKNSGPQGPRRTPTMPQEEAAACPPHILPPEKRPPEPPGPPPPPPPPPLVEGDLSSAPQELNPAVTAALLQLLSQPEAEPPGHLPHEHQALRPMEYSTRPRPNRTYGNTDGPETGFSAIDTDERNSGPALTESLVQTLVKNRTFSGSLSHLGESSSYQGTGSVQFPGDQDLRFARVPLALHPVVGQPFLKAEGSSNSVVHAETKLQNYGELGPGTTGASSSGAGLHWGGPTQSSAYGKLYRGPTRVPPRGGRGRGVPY
Chain of CDK12/Cyclin K (O75909 whole entry): as the sequence (O75909 whole entry, further chain) above
Chain of CDK12/Cyclin K (Q9NYV4 whole entry): as the sequence (Q9NYV4 whole entry, looked up) above

Turning to `Cn1cc(C2=C(c3cn(CCCSC(=N)N)c4ccccc34)C(=O)NC2=O)c2ccccc21` [BISINDOLYLMALEIMIDE IX], the values for the IC50 in assay [1] and in assay [2] were 143 nM and 206 nM, respectively.

As for `O=C1CC[C@@H](N2C(=O)c3cccc(OCCCCCOc4ccc(CC(=O)Nc5cc(C6CCC6)[nH]n5)cc4)c3C2=O)C(=O)N1`, the IC50 in assay [1] is 749 nM; in assay [3], 42300 nM.

For the compound `Cn1ncc(-c2nc(N[C@H]3CC[C@H](N)CC3)ncc2F)c1CC1CC1`, the IC50 came out at 53 nM in assay [1], 21.5 nM in assay [2] and 11300 nM in assay [3].

With `COc1cc(F)ccc1-c1cc(Nc2cc(C[S@@](C)(=N)=O)ccn2)ncc1F`, the concentration for half-maximal inhibition (IC50) in assay [1] is 425 nM; in assay [3] it was 853 nM.

Regarding `NCCCNc1ccc(Nc2nccc(Nc3cc(C4CC4)[nH]n3)n2)cc1`, the concentration for half-maximal inhibition (IC50) in assay [1] came to 260 nM; in assay [2], 154 nM; in assay [3] it was 9110 nM.

As for `CN(C)C/C=C/C(=O)Nc1ccc(C(=O)N2CCC[C@@H](Nc3ncc(Cl)c(-c4c[nH]c5ccccc45)n3)C2)cc1`, the inhibition in assay [4] was found to be 33%; in assay [5], 96.7%; in assay [6], 98.7%. For the same compound, the IC50 in assay [1] was found to be 152 nM; in assay [2] it was 40 nM.

For the compound `C=CC(=O)Nc1cccc(Nc2cc(N3CCCC[C@H]3CCO)nc3c(CC)cnn23)c1`, the results for the 50% inhibitory concentration (IC50) in assay [1], in assay [2] and in assay [3] were 74.4 nM, 29.3 nM and 490 nM, respectively.

In the case of `Cc1cc(O)c(-c2ccc([C@@H](C)CN)cc2)c2c1[nH]c(=O)c1sccc12`, the half-maximal inhibitory concentration (IC50) in assay [3] was 6260 nM.

For `CN1CCN(Cc2ccc(NC(=O)c3n[nH]cc3Nc3ncnc4[nH]ccc34)cc2)CC1`, the IC50 in assay [1] is 183 nM; in assay [2] it was 187 nM; in assay [3], 23900 nM.

For the origin of these results see ChEMBL document CHEMBL5335776, “Development, validation, and evaluation of a deep learning model to screen cyclin-dependent kinase 12 inhibitors in cancers” (Eur J Med Chem, 2023).
